Measured values taken from PubChem BioAssay (NCI).
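Results reflect a 48-hour exposure of cells in 96-well plates to compound at five concentrations. Abbreviation: GI50, concentration required for 50% inhibition of growth. At the TGI there is no net growth.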

What was measured:
Assay in all cases: inhibition of tumour cell growth, NCI panel, 48 h
786-0 renal = tested on: 786-0 renal
A498 renal = tested on: A498 renal
A549 NSCLC = tested on: A549 NSCLC
ACHN renal = tested on: ACHN renal
BT-549 breast = tested on: BT-549 breast
CAKI-1 renal = tested on: CAKI-1 renal
CCRF-CEM leukemia = tested on: CCRF-CEM leukemia
COLO 205 colon = tested on: COLO 205 colon
DU-145 prostate = tested on: DU-145 prostate
EKVX NSCLC = tested on: EKVX NSCLC
HCC-2998 colon = tested on: HCC-2998 colon
HCT-116 colon = tested on: HCT-116 colon
HCT-15 colon = tested on: HCT-15 colon
HL-60(TB) leukemia = tested on: HL-60(TB) leukemia
HOP-62 NSCLC = tested on: HOP-62 NSCLC
HOP-92 NSCLC = tested on: HOP-92 NSCLC
HS 578T breast = tested on: HS 578T breast
HT29 colon = tested on: HT29 colon
IGROV1 ovarian = tested on: IGROV1 ovarian
K-562 leukemia = tested on: K-562 leukemia
KM12 colon = tested on: KM12 colon
LOX IMVI melanoma = tested on: LOX IMVI melanoma
M14 melanoma = tested on: M14 melanoma
MALME-3M melanoma = tested on: MALME-3M melanoma
MCF7 breast = tested on: MCF7 breast
MDA-MB-231 breast = tested on: MDA-MB-231 breast
MDA-MB-435 = tested on: MDA-MB-435
MDA-MB-468 breast = tested on: MDA-MB-468 breast
MOLT-4 leukemia = tested on: MOLT-4 leukemia
NCI-H226 lung = tested on: NCI-H226 lung
NCI-H23 lung = tested on: NCI-H23 lung
NCI-H460 lung = tested on: NCI-H460 lung
NCI-H522 lung = tested on: NCI-H522 lung
NCI/ADR-RES ovarian = tested on: NCI/ADR-RES ovarian
OVCAR-3 ovarian = tested on: OVCAR-3 ovarian
OVCAR-4 ovarian = tested on: OVCAR-4 ovarian
OVCAR-8 ovarian = tested on: OVCAR-8 ovarian
PC-3 prostate = tested on: PC-3 prostate
RPMI-8226 leukemia = tested on: RPMI-8226 leukemia
SF-268 CNS = tested on: SF-268 CNS
SF-295 CNS = tested on: SF-295 CNS
SF-539 CNS = tested on: SF-539 CNS
SK-MEL-2 melanoma = tested on: SK-MEL-2 melanoma
SK-MEL-5 melanoma = tested on: SK-MEL-5 melanoma
SK-OV-3 ovarian = tested on: SK-OV-3 ovarian
SN12C renal = tested on: SN12C renal
SNB-19 CNS = tested on: SNB-19 CNS
SNB-75 CNS = tested on: SNB-75 CNS
SR leukemia = tested on: SR leukemia
SW-620 colon = tested on: SW-620 colon
T-47D breast = tested on: T-47D breast
TK-10 renal = tested on: TK-10 renal
U251 CNS = tested on: U251 CNS
UACC-257 melanoma = tested on: UACC-257 melanoma
UACC-62 melanoma = tested on: UACC-62 melanoma
UO-31 renal = tested on: UO-31 renal

## O=C1NC(=O)c2c1c1c3cc(Br)ccc3[nH]c1c1oc3ccc(F)cc3c21
786-0 renal
  GI50: 3.62 µM
  TGI: 21.9 µM
A498 renal
  GI50: 2.02 µM
  TGI: 3.54 µM
A549 NSCLC
  GI50: 6.84 µM
  TGI: > 100 µM
ACHN renal
  GI50: 1.97 µM
  TGI: 5.3 µM
BT-549 breast
  GI50: 9.86 µM
  TGI: > 100 µM
CAKI-1 renal
  GI50: 2.25 µM
  TGI: > 100 µM
CCRF-CEM leukemia
  GI50: 0.2 µM
  TGI: > 100 µM
COLO 205 colon
  GI50: 2.96 µM
  TGI: > 100 µM
DU-145 prostate
  GI50: 3.21 µM
  TGI: > 100 µM
EKVX NSCLC
  GI50: 3.99 µM
  TGI: > 100 µM
HCC-2998 colon
  GI50: 3.39 µM
  TGI: 45.6 µM
HCT-116 colon
  GI50: 3 µM
  TGI: > 100 µM
HCT-15 colon
  GI50: 2.93 µM
  TGI: > 100 µM
HL-60(TB) leukemia
  GI50: > 100 µM
  TGI: > 100 µM
HOP-62 NSCLC
  GI50: 1.58 µM
  TGI: 3.52 µM
HOP-92 NSCLC
  GI50: 1.59 µM
  TGI: 4.52 µM
HS 578T breast
  GI50: 1.91 µM
  TGI: 4.66 µM
HT29 colon
  GI50: 3.59 µM
  TGI: > 100 µM
IGROV1 ovarian
  GI50: 1.03 µM
  TGI: 3.15 µM
K-562 leukemia
  GI50: 3.66 µM
  TGI: > 100 µM
KM12 colon
  GI50: 2.87 µM
  TGI: > 100 µM
LOX IMVI melanoma
  GI50: 1.43 µM
  TGI: 2.77 µM
M14 melanoma
  GI50: 3.16 µM
  TGI: > 100 µM
MALME-3M melanoma
  GI50: 1.42 µM
  TGI: 4.01 µM
MCF7 breast
  GI50: 0.877 µM
  TGI: 3.32 µM
MDA-MB-231 breast
  GI50: 1.57 µM
  TGI: 3.58 µM
MDA-MB-435
  GI50: 4.24 µM
  TGI: > 100 µM
MDA-MB-468 breast
  GI50: 1.35 µM
  TGI: 3.06 µM
MOLT-4 leukemia
  GI50: 0.533 µM
  TGI: > 100 µM
NCI-H226 lung
  GI50: 1.1 µM
  TGI: 2.6 µM
NCI-H23 lung
  GI50: 1.75 µM
  TGI: 4.06 µM
NCI-H460 lung
  GI50: 1.46 µM
  TGI: 3.32 µM
NCI-H522 lung
  GI50: 1.42 µM
  TGI: 3.31 µM
NCI/ADR-RES ovarian
  GI50: 3.43 µM
  TGI: > 100 µM
OVCAR-3 ovarian
  GI50: 2.14 µM
  TGI: 5.3 µM
OVCAR-4 ovarian
  GI50: 1.55 µM
  TGI: 3.33 µM
OVCAR-8 ovarian
  GI50: 1.67 µM
  TGI: 4.77 µM
PC-3 prostate
  GI50: 1.69 µM
  TGI: 4.99 µM
RPMI-8226 leukemia
  GI50: 3.71 µM
  TGI: > 100 µM
SF-268 CNS
  GI50: 2.61 µM
  TGI: 7.8 µM
SF-295 CNS
  GI50: 5.95 µM
  TGI: > 100 µM
SF-539 CNS
  GI50: 1.79 µM
  TGI: 3.53 µM
SK-MEL-2 melanoma
  GI50: 2.21 µM
  TGI: 6.17 µM
SK-MEL-5 melanoma
  GI50: 3.72 µM
  TGI: > 100 µM
SK-OV-3 ovarian
  GI50: 2.04 µM
  TGI: 5.37 µM
SN12C renal
  GI50: 1.71 µM
  TGI: 3.69 µM
SNB-19 CNS
  GI50: 2.17 µM
  TGI: 6.04 µM
SNB-75 CNS
  GI50: 2.09 µM
  TGI: 7.99 µM
SR leukemia
  GI50: 4.47 µM
  TGI: > 100 µM
SW-620 colon
  GI50: 2.39 µM
  TGI: > 100 µM
T-47D breast
  GI50: 1.24 µM
  TGI: 4.51 µM
TK-10 renal
  GI50: 3.47 µM
  TGI: > 100 µM
U251 CNS
  GI50: 1.73 µM
  TGI: 3.87 µM
UACC-257 melanoma
  GI50: 6.09 µM
  TGI: > 100 µM
UACC-62 melanoma
  GI50: 1.39 µM
  TGI: 4.88 µM
UO-31 renal
  GI50: 0.358 µM
  TGI: > 100 µM
